Values quoted from earlier work, collected in patent publication US6384246B1, “Process for the preparation of maltol from plants belonging to the genus Abies” (Council of Scientific & Industrial Research, priority 2001, dated 2002).

Conditions: in ethylene glycol at ambient temperature

solubility of maltol in ethylene glycol: about 4%
Compound: Cc1occc(=O)c1O [maltol, 2-methyl-3-hydroxy-4-pyrone]
